Common to all, as to experiment: growth of human tumour cells (NCI), 48 h
The subject of assay [1] is CCRF-CEM leukemia.
Assay [2] has as its system SK-MEL-5 melanoma.
Assay [3] relates to MOLT-4 leukemia.
The subject of assay [4] is RXF 393 renal.
Assay [5] concerns OVCAR-4 ovarian.
Assay [6] has as its system HCT-15 colon.
In assay [7] the test system is ACHN renal.
Assay [8] deals with SF-295 CNS.
Assay [9] deals with SK-MEL-2 melanoma.
Assay [10] deals with DLD-1 colon.

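Assay format: 96-well plates, 48-hour exposure. At the GI50, growth is halved. TGI marks complete inhibition of growth.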

This note sets out measurements from PubChem BioAssay (NCI).

For `COc1ccc2[nH]cc(C3(c4c[nH]c5ccc(OC)cc45)C(=O)Nc4ccc(F)cc43)c2c1`, the GI50 in [1] is 3.04 µM; in assay [2], 1.98 µM; in assay [3], 1.97 µM; in assay [4] it was 2.31 µM; in assay [5], 2.76 µM; in [6], 4.12 µM. The GI50 in [7] was 2.93 µM; in assay [8] it was 1.79 µM; in [9] it was 2.34 µM. Besides, the TGI was 22.4 µM in assay [1]; 4.77 µM in assay [2]; 6.08 µM in assay [3]; 6.54 µM in assay [4]; 11.6 µM in assay [5]; 20.2 µM in [6]. The TGI in assay [7] amounted to 10.1 µM; in assay [8], 4.85 µM; in assay [9], 5.02 µM.

Take `O=C1/C(=C/c2ccc3c(c2)OCO3)SC2C=Nc3ccccc3N12` (stereo unspecified): the TGI in [2], in [10], in assay [3], in assay [4], in assay [5] and in assay [6] was above 100 µM in each case. For the same molecule, the TGI in [7], in [8] and in assay [9] was above 100 µM throughout.

Turning to `NC(=O)C12CC3CC(CC(F)(C3)C1)C2`, the TGI in assay [1], in [10], in assay [3], in assay [4], in [7] and in assay [9] was above 100 µM throughout.

As to `O=C1Nc2ccccc2/C1=N\[O-].O=C1Nc2ccccc2/C1=N\[O-].[Cu+2]`, the GI50 in [1], in [2], in assay [3], in [4], in assay [5] and in assay [6] was above 100 µM each time. Also, the GI50 in assay [7], in [8] and in assay [9] was above 100 µM each time. Besides, the TGI in assay [1], in assay [2], in [3], in [4], in [5] and in [6] was above 100 µM in each case. Besides, the TGI in assay [7], in assay [8] and in [9] was above 100 µM in each case.

As for `O=C1OCC2=C1C(c1cccc(Br)c1)c1cc3c(cc1N2CCO)CCC3` (stereo unspecified), the GI50 was 0.148 µM in [1]; 0.0482 µM in [2]; 0.262 µM in assay [3]; 0.0263 µM in assay [4]; 0.168 µM in [5]; 0.114 µM in assay [6]. Moreover, the GI50 was 0.0865 µM in assay [7], 0.034 µM in [8] and 0.231 µM in assay [9]. Further, the TGI was 10 µM in [1]; 0.428 µM in assay [2]; 14.2 µM in assay [3]; 1.61 µM in [4]; 16 µM in assay [5]; 7.14 µM in assay [6]. Further, the TGI in [7] amounted to 9.68 µM; in assay [8], 8.36 µM; in assay [9] it was 8.32 µM.

Regarding `CCOC(=O)C(Cc1ccc(CCCC(=O)NCCC(=O)Nc2ccc3nc(C)sc3c2)cc1)C(=O)OCC`, the GI50 was 28.6 µM in assay [1]; 15.4 µM in [2]; 21.3 µM in assay [3]; 36.4 µM in [4]; 38.1 µM in assay [5]; 31.8 µM in [6]. In addition, the GI50 in assay [7] is 18.2 µM; in assay [8], 49.4 µM; in assay [9], 33 µM. Further, the TGI in assay [1] was above 89.3 µM; in [2], 29.2 µM; in assay [3] it was 54.5 µM; in [4], above 100 µM; in assay [5] it was above 100 µM; in assay [6], above 100 µM. The TGI in [7] is 34.3 µM; in assay [8], above 100 µM; in assay [9] it was above 62 µM.

`CCn1c2ccccc2c2cc(NC(=O)Nc3ccc([N+](=O)[O-])cc3C)ccc21`: the GI50 in [1] was 1.62 µM; in assay [2] it was 14.3 µM; in [3], 1.29 µM; in assay [4] it was 1.36 µM; in assay [5], 5.48 µM; in [6], 2.29 µM. Also, the GI50 in [7] was 3.56 µM; in [8], 2.29 µM; in [9], 3.33 µM. Also, the TGI is 4 µM in assay [1]; above 100 µM in [2]; 3.85 µM in [3]; 6.27 µM in [4]; 85 µM in [5]; 37.3 µM in assay [6]. Further, the values for the TGI in assay [7], in assay [8] and in assay [9] were 14.9 µM, 9.13 µM and 15.4 µM, respectively.

For `CC[C@H]1[C@@H]2C=C[C@@H]3[C@H]4C/C=C\C(=O)NCCC[C@@H]5NC(=O)/C(=C(O)/C=C/[C@@H]4C[C@@H]3[C@H]2C[C@H]1C)C5=O`, the GI50 was 1.59 µM in assay [1]; 0.9 µM in [2]; 1.48 µM in assay [3]; 0.236 µM in assay [4]; 0.664 µM in [5]; 0.425 µM in assay [6]. In addition, the figures for the GI50 in assay [7], in assay [8] and in assay [9] were 0.42 µM, 1.42 µM and 2.54 µM, respectively. Moreover, the TGI in assay [1] was 4.29 µM; in assay [2], 2.2 µM; in [3], 3.47 µM; in assay [4], 0.84 µM; in assay [5] it was 2.16 µM; in [6], 1.86 µM. Besides, the TGI in assay [7] is 1.57 µM; in assay [8], 2.8 µM; in assay [9], 6.01 µM.

In the case of `Clc1ccc2[nH]cc(-c3nnnn3-c3ccccc3)c2c1`, the GI50 in [1] was 19.3 µM; in assay [2], 9.97 µM; in assay [3], 11 µM; in [4], 32.2 µM; in assay [5], above 43.8 µM; in assay [6], 12 µM. Further, the GI50 was 24.9 µM in [7], 13.3 µM in [8] and above 64.9 µM in assay [9]. For the same molecule, the TGI in [1] was above 100 µM; in [2] it was 28.8 µM; in assay [3], above 53 µM; in assay [4], above 100 µM; in assay [5] it was above 100 µM; in [6], above 100 µM. The figures for the TGI in [7], in assay [8] and in assay [9] were above 100 µM, 52.7 µM and above 100 µM, respectively.
